# Legend:
# [1] = system: HSP-27; assay: Intracellular HSP 27 expression in scratched keratinocytes (ELISA); assay type: cell-based, human; conditions: for HSP-27, intracellular: scratched keratinocytes, 50 ppm Arginine
# Description: Human keratinocytes are cultured in DMEM medium supplemented with 10% FBS and 1% of antibiotic at 37° C. under a 5% CO2 atmosphere in petri dishes. Once the cells are 80-90% confluent, a scratch is made horizontally and a scratch is made vertically across the layer of cells. […] […] The cell suspension is then homogenized with metal beads for 5 minutes and then analyzed for HSP27 using ELISA. In both untreated and arginine treated cells, scratching induces a strong increase in intracellular HSP-27 expression at one hour which declines at 4 hours. […] Without being bound by theory, Applicants believe that it is this initial burst of HSP-27 expression at the time of physical injury that contributes to improved wound healing.
# [2] = system: Human keratinocytes; assay: Gap closure after scratch, migration of human keratinocytes; assay type: cell-based; conditions: 100 ppm Arginine in DMEM
# Description: Human keratinocytes are cultured in DMEM medium supplemented with 10% FBS and 1% of antibiotic at 37° C. under a 5% CO2 atmosphere in petri dishes. Once the cells are 80-90% confluent, a scratch is made horizontally and a scratch is made vertically across the layer of cells. 1 ml of a test solution is added to the culture, and the cells are further incubated and monitored by photomicroscopy to evaluate the closure of the gap created by the scratches. The test solutions compared are 100 ppm Arginine in DMEM medium and untreated DMEM medium. The results are shown in Table 3 below, expressed as the average width of the gap as a percentage of the initial width of the gap (at 0 hours).
# A second gap closure experiment is also performed which compares the results obtained when 100 ppm Arginine in DMEM is used against 1:500 v/v dilutions of commercial mouthwash formulations. In one test, a 0.8% w/v arginine mouthwash formulation is used. In a second test, a 0.075% w/v cetylpyridinium chloride (CPC) mouthwash formulation is used as a negative control. CPC is common antibacterial agent and preservative used in oral care products.
# [3] = system: HSP 27; assay: HSP 27 production in scratched (damaged) human gingival tissue, level in cell supernatant; assay type: cell-based; conditions: for HSP27 concentration: scratched gingival tissue, arginine 50 ppm in culture medium, 37° C.
# Description: A scratching protocol was used to damage and stress human gingival tissue (MatTek Corporation). Arginine, at a dose of 50 ppm was applied to the culture medium containing the tissue. The treated tissue was incubated at 37° C. to promote tissue healing. Cell supernatant was collected at various time points and the level of HSP 27 was measured.
compound,measurement,setting,value
"N=C(N)NCCCC(N)C(=O)O (stereo not shown) [Arginine, 2-amino-5-guanidinopentanoic acid]",intracellular HSP-27 expression compared to untreated scratched cells,[1]; 50 ppm arginine,significantly higher expression
same,"HSP-27, intracellular",[1]; time 0 hr,17.11 ng/mL
same,"HSP-27, intracellular",[1]; time 1 hr,64.04 ng/mL
same,"HSP-27, intracellular",[1]; time 2 hr as printed in the table,45.12 ng/mL
same,speed of gap closure compared to the DMEM control,[2],significantly faster
same,% Gap Closure,[2]; 24 hr after scratch,21%
same,% Gap Closure,[2]; 48 hr after scratch,63%
same,% Gap Closure,[2]; 144 hr after scratch,100%
same,% Gap Closure,"[2]; second experiment, 48 hr",75%
same,"production of HSP 27 compared to the untreated, scratched tissue","[3]; arginine 50 ppm, at 1 hour and at 4 hours",significantly accelerated
same,HSP27 concentration,[3]; incubation time 0 hr,22.78 ng/mL
same,HSP27 concentration,[3]; incubation time 1 hr,218.76 ng/mL
same,HSP27 concentration,[3]; incubation time 4 hr,359.72 ng/mL

# Source: patent publication US12465791B2, “Oral care composition” (Colgate-Palmolive Company, priority 2014, dated 2025)
